Measurements published in ChEMBL document CHEMBL3045802, “Synthesis and in vitro antitumor activity of new quinoline, pyrimido[4,5-b]quinoline, [1,2,3]triazino[4,5-b]quinoline, and [1,2,4]triazolo[2,3:3,4]pyrimido[6,5-b]quinoline analogs” (2013).

Assays:
Type in all cases: functional
HT-29 = assay: Cytotoxicity against Homo sapiens (human) HT-29 cells assessed as growth inhibition at 10 uM after 48 hr by coulter counter analysis; settings: HT-29, 48 h, read-out: GI
BT-549 = assay: Cytotoxicity against Homo sapiens (human) BT549 cells assessed as growth inhibition at 10 uM after 48 hr by coulter counter analysis; settings: BT-549, 48 h, read-out: GI
K562 = assay: Cytotoxicity against Homo sapiens (human) K562 cells assessed as growth inhibition at 10 uM after 48 hr by coulter counter analysis; settings: K562, 48 h, read-out: GI
CAKI-1 = assay: Cytotoxicity against Homo sapiens (human) Caki1 cells assessed as growth inhibition at 10 uM after 48 hr by coulter counter analysis; settings: CAKI-1, 48 h, read-out: GI
HCC 2998 = assay: Cytotoxicity against Homo sapiens (human) HCC2998 cells assessed as growth inhibition at 10 uM after 48 hr by coulter counter analysis; settings: HCC 2998, 48 h, read-out: GI
OVCAR-8 = assay: Cytotoxicity against Homo sapiens (human) OVCAR8 cells assessed as growth inhibition at 10 uM after 48 hr by coulter counter analysis; settings: OVCAR-8, 48 h, read-out: GI
HOP-92 = assay: Cytotoxicity against Homo sapiens (human) HOP92 cells assessed as growth inhibition at 10 uM after 48 hr by coulter counter analysis; settings: HOP-92, 48 h, read-out: GI
MDA-MB-231 = assay: Cytotoxicity against Homo sapiens (human) MDA-MB-231 cells assessed as growth inhibition at 10 uM after 48 hr by coulter counter analysis; settings: MDA-MB-231, 48 h, read-out: GI
OVCAR-5 = assay: Cytotoxicity against Homo sapiens (human) OVCAR5 cells assessed as growth inhibition at 10 uM after 48 hr by coulter counter analysis; settings: OVCAR-5, 48 h, read-out: GI
[1] = Cytotoxicity against Homo sapiens (human) NCI-ADR-RES cells assessed as growth inhibition at 10 uM after 48 hr by coulter counter analysis; settings: read-out: GI
SK-OV-3 = assay: Cytotoxicity against Homo sapiens (human) SKOV3 cells assessed as growth inhibition at 10 uM after 48 hr by coulter counter analysis; settings: SK-OV-3, 48 h, read-out: GI
PC-3 = assay: Cytotoxicity against Homo sapiens (human) PC3 cells assessed as growth inhibition at 10 uM after 48 hr by coulter counter analysis; settings: PC-3, 48 h, read-out: GI
SK-MEL-5 = assay: Cytotoxicity against Homo sapiens (human) SK-MEL-5 cells assessed as growth inhibition at 10 uM after 48 hr by coulter counter analysis; settings: SK-MEL-5, 48 h, read-out: GI
A498 = assay: Cytotoxicity against Homo sapiens (human) A498 cells assessed as growth inhibition at 10 uM after 48 hr by coulter counter analysis; settings: A498, 48 h, read-out: GI
Malme-3M = assay: Cytotoxicity against Homo sapiens (human) MALME-3M cells assessed as growth inhibition at 10 uM after 48 hr by coulter counter analysis; settings: read-out: GI
SK-MEL-2 = assay: Cytotoxicity against Homo sapiens (human) SK-MEL-2 cells assessed as growth inhibition at 10 uM after 48 hr by coulter counter analysis; settings: SK-MEL-2, 48 h, read-out: GI
MDA-MB-468 = assay: Cytotoxicity against Homo sapiens (human) MDA-MB-468 cells assessed as growth inhibition at 10 uM after 48 hr by coulter counter analysis; settings: MDA-MB-468, 48 h, read-out: GI
SF-539 = assay: Cytotoxicity against Homo sapiens (human) SF539 cells assessed as growth inhibition at 10 uM after 48 hr by coulter counter analysis; settings: SF-539, 48 h, read-out: GI
RXF 393 = assay: Cytotoxicity against Homo sapiens (human) RXF393 cells assessed as growth inhibition at 10 uM after 48 hr by coulter counter analysis; settings: RXF 393, 48 h, read-out: GI
CCRF-CEM = assay: Cytotoxicity against Homo sapiens (human) CCRF-CEM cells assessed as growth inhibition at 10 uM after 48 hr by coulter counter analysis; settings: read-out: GI
NCI-H226 = assay: Cytotoxicity against Homo sapiens (human) NCI-H226 cells assessed as growth inhibition at 10 uM after 48 hr by coulter counter analysis; settings: NCI-H226, 48 h, read-out: GI
COLO 205 = assay: Cytotoxicity against Homo sapiens (human) COLO205 cells assessed as growth inhibition at 10 uM after 48 hr by coulter counter analysis; settings: COLO 205, 48 h, read-out: GI
SF-268 = assay: Cytotoxicity against Homo sapiens (human) SF268 cells assessed as growth inhibition at 10 uM after 48 hr by coulter counter analysis; settings: SF-268, 48 h, read-out: GI
UACC-257 = assay: Cytotoxicity against Homo sapiens (human) UACC257 cells assessed as growth inhibition at 10 uM after 48 hr by coulter counter analysis; settings: UACC-257, 48 h, read-out: GI
EKVX = assay: Cytotoxicity against Homo sapiens (human) EKVX cells assessed as growth inhibition at 10 uM after 48 hr by coulter counter analysis; settings: read-out: GI
ACHN = assay: Cytotoxicity against Homo sapiens (human) ACHN cells assessed as growth inhibition at 10 uM after 48 hr by coulter counter analysis; settings: read-out: GI
SF-295 = assay: Cytotoxicity against Homo sapiens (human) SF295 cells assessed as growth inhibition at 10 uM after 48 hr by coulter counter analysis; settings: SF-295, 48 h, read-out: GI
HL-60(TB) = assay: Cytotoxicity against Homo sapiens (human) HL-60(TB) cells assessed as growth inhibition at 10 uM after 48 hr by coulter counter analysis; settings: HL-60, 48 h, read-out: GI
OVCAR-4 = assay: Cytotoxicity against Homo sapiens (human) OVCAR4 cells assessed as growth inhibition at 10 uM after 48 hr by coulter counter analysis; settings: OVCAR-4, 48 h, read-out: GI
HCT-116 = assay: Cytotoxicity against Homo sapiens (human) HCT116 cells assessed as growth inhibition at 10 uM after 48 hr by coulter counter analysis; settings: HCT-116, 48 h, read-out: GI
LOX IMVI = assay: Cytotoxicity against Homo sapiens (human) LOXIMVI cells assessed as growth inhibition at 10 uM after 48 hr by coulter counter analysis; settings: read-out: GI
SN12C = assay: Cytotoxicity against Homo sapiens (human) SN12C cells assessed as growth inhibition at 10 uM after 48 hr by coulter counter analysis; settings: read-out: GI
HCT-15 = assay: Cytotoxicity against Homo sapiens (human) HCT15 cells assessed as growth inhibition at 10 uM after 48 hr by coulter counter analysis; settings: HCT-15, 48 h, read-out: GI
Hs-578T = assay: Cytotoxicity against Homo sapiens (human) Hs578T cells assessed as growth inhibition at 10 uM after 48 hr by coulter counter analysis; settings: read-out: GI

SMILES	inhibition of growth at 10 µM (HT-29)	inhibition of growth at 10 µM (BT-549)	inhibition of growth at 10 µM (K562)	inhibition of growth at 10 µM (CAKI-1)	inhibition of growth at 10 µM (HCC 2998)	inhibition of growth at 10 µM (OVCAR-8)	inhibition of growth at 10 µM (HOP-92)	inhibition of growth at 10 µM (MDA-MB-231)	inhibition of growth at 10 µM (OVCAR-5)	inhibition of growth at 10 µM [1]	inhibition of growth at 10 µM (SK-OV-3)	inhibition of growth at 10 µM (PC-3)	inhibition of growth at 10 µM (SK-MEL-5)	inhibition of growth at 10 µM (A498)	inhibition of growth at 10 µM (Malme-3M)	inhibition of growth at 10 µM (SK-MEL-2)	inhibition of growth at 10 µM (MDA-MB-468)	inhibition of growth at 10 µM (SF-539)	inhibition of growth at 10 µM (RXF 393)	inhibition of growth at 10 µM (CCRF-CEM)	also measured
N#CCc1nc2c(c(=O)[nH]1)C(c1ccc(Cl)cc1)C1=C(CCCC1)N2 (stereo not drawn)	< 10%	< 10%	< 10%	< 10%	< 10%	< 10%	11.2%	< 10%	< 10%	< 10%	< 10%	< 10%	< 10%	13%	< 10%	10%	< 10%	< 10%	< 10%	< 10%	inhibition of growth at 10 µM (NCI-H226): < 10%; inhibition of growth at 10 µM (COLO 205): 10.4%; inhibition of growth at 10 µM (SF-268): < 10%; inhibition of growth at 10 µM (UACC-257): < 10%; inhibition of growth at 10 µM (EKVX): 13%; inhibition of growth at 10 µM (ACHN): 13.8%; inhibition of growth at 10 µM (SF-295): < 10%; inhibition of growth at 10 µM (HL-60(TB)): < 10%; inhibition of growth at 10 µM (OVCAR-4): < 10%; inhibition of growth at 10 µM (HCT-116): < 10%; inhibition of growth at 10 µM (LOX IMVI): < 10%; inhibition of growth at 10 µM (SN12C): 15.5%; inhibition of growth at 10 µM (HCT-15): < 10%; inhibition of growth at 10 µM (Hs-578T): < 10%
COc1ccc(C2C3=C(CCCC3)Nc3nc(CC#N)[nH]c(=O)c32)cc1OC (stereo not drawn)	< 10%	< 10%	< 10%	< 10%	< 10%	< 10%	< 10%	< 10%	< 10%	< 10%	< 10%	< 10%	< 10%	< 10%	< 10%	< 10%	< 10%	< 10%	< 10%	< 10%	inhibition of growth at 10 µM (NCI-H226): 11.3%; inhibition of growth at 10 µM (COLO 205): < 10%; inhibition of growth at 10 µM (SF-268): < 10%; inhibition of growth at 10 µM (UACC-257): < 10%; inhibition of growth at 10 µM (EKVX): < 10%; inhibition of growth at 10 µM (ACHN): < 10%; inhibition of growth at 10 µM (SF-295): < 10%; inhibition of growth at 10 µM (HL-60(TB)): < 10%; inhibition of growth at 10 µM (OVCAR-4): < 10%; inhibition of growth at 10 µM (HCT-116): < 10%; inhibition of growth at 10 µM (LOX IMVI): < 10%; inhibition of growth at 10 µM (SN12C): < 10%; inhibition of growth at 10 µM (HCT-15): < 10%; inhibition of growth at 10 µM (Hs-578T): < 10%
